Blank lines part the entries; values can stand above or below the compound they belong to.
Assays:
[1] = system: 6-OHDA lesioned rats; assay: Rotational experiment with 6-OHDA lesioned rats; type: in vivo, rat
[2] = target: dopamine rD3 receptor (Rattus norvegicus, UniProt P19020); conditions: ratio of Ki D2L to Ki D3
[3] = target: dopamine hD3 receptor (Homo sapiens, UniProt P35462); assay: Stimulation of [35S]GTPγS binding, hD3 receptors expressed in CHO cells; type: biochemical; conditions: read-out: %Emax, CHO-D3
dopamine hD3 receptor, sequence (P35462 whole entry): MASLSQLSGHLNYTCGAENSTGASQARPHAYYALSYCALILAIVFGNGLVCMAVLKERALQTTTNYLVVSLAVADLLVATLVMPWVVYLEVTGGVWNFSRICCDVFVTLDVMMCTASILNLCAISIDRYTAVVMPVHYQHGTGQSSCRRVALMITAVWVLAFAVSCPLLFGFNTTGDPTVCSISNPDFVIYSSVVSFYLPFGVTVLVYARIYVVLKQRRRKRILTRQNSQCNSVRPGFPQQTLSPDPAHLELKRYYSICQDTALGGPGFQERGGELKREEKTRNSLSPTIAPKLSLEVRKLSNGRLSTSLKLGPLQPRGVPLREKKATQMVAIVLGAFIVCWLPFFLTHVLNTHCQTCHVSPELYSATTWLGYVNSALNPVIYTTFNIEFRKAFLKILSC

dopamine rD3 receptor, sequence (P19020 whole entry): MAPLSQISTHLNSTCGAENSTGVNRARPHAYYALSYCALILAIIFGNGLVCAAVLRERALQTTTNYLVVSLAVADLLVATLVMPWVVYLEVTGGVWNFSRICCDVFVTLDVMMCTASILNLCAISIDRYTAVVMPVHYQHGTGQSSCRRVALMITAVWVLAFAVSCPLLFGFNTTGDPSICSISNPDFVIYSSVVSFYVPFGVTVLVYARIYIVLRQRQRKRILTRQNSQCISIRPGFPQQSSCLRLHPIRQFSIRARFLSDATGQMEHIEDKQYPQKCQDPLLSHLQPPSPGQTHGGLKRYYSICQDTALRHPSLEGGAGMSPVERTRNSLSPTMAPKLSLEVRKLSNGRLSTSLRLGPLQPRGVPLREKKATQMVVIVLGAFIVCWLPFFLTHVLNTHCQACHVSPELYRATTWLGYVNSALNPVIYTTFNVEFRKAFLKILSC

SMILES: CN1CCc2cccc3c2[C@H]1Cc1ccc(O)c(O)c1-3 [apomorphine]
average rotation (contralateral) ([1]; 0.05 mg/kg, 21 days post lesion, recorded for 30 min, four rats): > 250

D2L/D3 [2]: 15.4
SMILES: CCCN(CCN1CCN(Cc2ccc(O)c3ncccc23)CC1)C1CCc2ccc(O)cc2C1 (centres unmarked) [Compound 12a, 5-((4-(2-((7-hydroxy-1,2,3,4-tetrahydronaphthalen-2-yl)(propyl)amino)ethyl)piperazin-1-yl)methyl) quinolin-8-ol]

D2L/D3 [2]: 11.2
SMILES: CCCN(CCN1CCN(Cc2ccc(O)c3ncccc23)CC1)C1CCc2c(O)cccc2C1 (centres unmarked) [Compound 12b, 5-((4-(2-((5-hydroxy-1,2,3,4-tetrahydronaphthalen-2-yl)(propyl)amino)ethyl)piperazin-1-yl)methyl)quinolin-8-ol]

SMILES: CCCN(CCC)CCc1cccc2c1CC(=O)N2 [Ropinirole]
rotational activity ([1]; 5 µMol/kg): much less rotations with shorter duration of action
Emax [3]: 66.6 ± 8.1%

Reference: paper PMC2844127 (Journal of medicinal chemistry, 2010)
